Data: patent US20220016215A1, “GIP RECEPTOR AGONIST PEPTIDE COMPOUNDS AND USES THEREOF” (TAKEDA PHAARMACEUTICAL COMPANY LIMITED, priority 2018, published 2022)
“And” between values parts separate entries of the source, which are not always exact repeats. Identical values can stand only once. Marks after values point to notes of the source that are not given here.

Tests used:
[1] = system: morphine (0.6 mg/kg, s.c.)-induced emesis in ferrets; experiment: Morphine-induced acute emetic model in male ferrets; format: in vivo, ferret; settings: for Emesis: Latency / Fidget: Latency / Licking: Latency / Retching: Latency / Vomiting: Latency: non-responders counted as 30 min; for Comment: Anti-Emetic Activity (inhibition) on morphine-induced emesis: summary of the morphine experiments
Description: Example 6—In-Vivo Effect of GIP Receptor Agonist Peptides on Emesis in Morphine Induced Emesis Model in Live Male Ferrets
Effect of subcutaneously administered GIP receptor agonist peptide in morphine-induced acute emetic model.
To evaluate the antiemetic effect, the GIP receptor agonist peptides other than natural human GIP were subcutaneously administered into male ferrets 30 minutes before morphine administration. […]. Up to 60 minutes after morphine administration, the condition of the ferrets was monitored to record the frequencies and time points of abdominal contraction motions, vomiting behaviors, licking with the tongue, and fidgety behavior occurring
Effects of Subcutaneously Administered GIP Receptor Agonist Peptides in Morphine-Induced Acute Emetic Model
30 nmol/kg of Compounds 3 and 5 were dissolved with a vehicle (0.09 w/v % tween 80/10% DMSO/saline), respectively, to prepare test solutions. […] of the test solutions and the vehicle were subcutaneously administered to ferrets (4 in each group), respectively. At the time of each of 4 hours, after administration, 0.6 mg/kg of morphine was subcutaneously administered. […] See results in Tables 6, 7 and 8.
(§1) 10 nmol/kg of each compound dissolved with a vehicle (0.09 w/v % tween 80/10% DMSO/saline) respectively, to prepare test solutions. […] of the test solutions and the vehicle were subcutaneously administered to ferrets (4 in each group), respectively. At the time of each of 4 hours, or 120 hours after administration, 0.6 mg/kg of morphine was subcutaneously administered. Up to 360 minutes after morphine administration, the condition of the ferrets was monitored to record the frequencies and time points of abdominal contraction motions, vomiting behaviors, licking with the tongue, and fidgety behavior occurring.
as §1, with “30 nmol/kg” for “10 nmol/kg”, “80/10% DMSO/saline),respectively,” for “80/10% DMSO/saline) respectively,”

human GIPR = target: T1, human GIPR (Homo sapiens, UniProt P48546); experiment: Agonist activity on human GIPR, CRE-luciferase reporter assay (increase in intracellular cAMP as indicator); format: cell-based; settings: GLP1R EC50 / GIPR EC50
T1 construct: expressed in transfected cells
T1 sequence (P48546 22-466): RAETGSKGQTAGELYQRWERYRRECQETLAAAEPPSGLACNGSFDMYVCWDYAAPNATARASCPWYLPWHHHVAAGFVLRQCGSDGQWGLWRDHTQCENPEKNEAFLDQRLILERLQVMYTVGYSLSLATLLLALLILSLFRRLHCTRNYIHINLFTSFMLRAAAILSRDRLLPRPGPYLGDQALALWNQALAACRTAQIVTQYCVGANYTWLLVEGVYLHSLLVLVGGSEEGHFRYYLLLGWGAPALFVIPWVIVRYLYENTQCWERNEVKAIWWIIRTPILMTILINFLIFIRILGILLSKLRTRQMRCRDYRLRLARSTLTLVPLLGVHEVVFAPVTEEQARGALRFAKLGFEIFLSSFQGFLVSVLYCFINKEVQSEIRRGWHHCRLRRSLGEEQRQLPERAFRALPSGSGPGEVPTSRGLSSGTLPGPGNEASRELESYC
Excerpt: The human GIPR gene having an identical sequence to Genebank Accession No. U39231 is cloned into a pMSRα-neo vector to prepare hGIPR/pMSRα-neo.
(2) Construction of Reporter Plasmid Expressing Cell
Luciferase reporter gene with a cAMP-responsive sequence located upstream is transferred to a CHO-K1 cell to construct a CRE-LUC/CHO-K1 cell.
(4) Transfer of Human GIPR Gene to CRE-LUC/CHO-K1 Cell and Obtaining of Expressing Cell
The plasmid hGIPR/pMSRα-neo obtained in (1) is transferred to the CRE-LUC/CHO-K1 cell obtained in (2) to obtain a transformant. Subsequently, the cell line inducing the luciferase expression, hGIPR/CRE-LUC/CHO-K1 cell, is selected from the obtained transformant by adding GIP.
25 μL each of the hGIPR/CRE-LUC/CHO-K1 cell is inoculated in a 384-well white plate (Corning) in such a way as to provide 5×10^3 cells/well and may be cultured in a HamF12 medium containing 10% fetal bovine serum, 100 U/mL penicillin, and 100 μg/mL streptomycin in a CO2 incubator at 37° C. overnight. 5 μL of a medium containing a test compound is added to the cells and incubated for 4 hours at the indicated concentration in a CO2 incubator at 37° C. Steady-Glo (Promega) is added in amounts of 30 μL and shaken under light shielding. Twenty minutes later, luciferase activity is measured using a plate reader Envision (PerkinElmer). The GIPR agonist activity is calculated with increase in intracellular cAMP concentration as the indicator when the luciferase activity in the presence of 10 nM of GIP was 100% and the luciferase activity in the case of adding DMSO instead of the test compound was 0%.

[2] = ferrets, morphine 0.6 mg/kg s.c. 0.5 h after drug, 106-[…] s.c. (30 nmol/kg)
[3] = ferrets, 10 nmol/kg s.c., morphine administered 4 h after, cumulative total duration, individual animals and Mean
[4] = ferrets, 10 nmol/kg s.c., morphine administered 4 h after, individual animals and Mean
[5] = ferrets, 10 nmol/kg s.c., morphine administered 4 h after, individual animals and Mean, no emetic response = 30 min
[6] = ferrets, 10 nmol/kg s.c., morphine administered 4 h after, individual animals and Mean, no response = 30 min
[7] = ferrets, morphine 0.6 mg/kg s.c. 4 h after drug, 10 nmol/kg s.c.
[8] = male ferrets, 30 nmol/kg s.c., morphine 0.6 mg/kg s.c. 4 hours after administration

CC[C@H](C)[C@H](NC(=O)[C@H](CO)NC(=O)[C@H](Cc1ccc(O)cc1)NC(=O)[C@H](CC(=O)O)NC(=O)[C@H](CO)NC(=O)[C@@H](NC(=O)[C@H](Cc1ccccc1)NC(=O)[C@@H](NC(=O)CNC(=O)[C@H](CCC(=O)O)NC(=O)[C@H](C)NC(=O)[C@H](Cc1ccc(O)cc1)NC(C)=O)[C@@H](C)O)[C@@H](C)CC)C(=O)N[C@@H](C)C(=O)N[C@@H](CCSC)C(=O)N[C@@H](CC(=O)O)C(=O)N[C@@H](CCCCN)C(=O)N[C@H](C(=O)N[C@@H](Cc1c[nH]cn1)C(=O)N[C@@H](CCC(N)=O)C(=O)N[C@@H](CCC(N)=O)C(=O)N[C@@H](CC(=O)O)C(=O)N[C@@H](Cc1ccccc1)C(=O)N[C@H](C(=O)N[C@@H](CC(N)=O)C(=O)N[C@@H](Cc1c[nH]c2ccccc12)C(=O)N[C@@H](CC(C)C)C(=O)N[C@@H](CC(C)C)C(=O)N[C@@H](C)C(=O)N[C@@H](CCC(N)=O)C(=O)N[C@@H](CCCCN)C(=O)NCC(=O)N[C@@H](CCCCN)C(=O)N[C@@H](CCCCN)C(=O)N[C@@H](CC(N)=O)C(=O)N[C@@H](CC(=O)O)C(=O)N[C@@H](Cc1c[nH]c2ccccc12)C(=O)N[C@@H](CCCCN)C(=O)N[C@@H](Cc1c[nH]cn1)C(=O)N[C@@H](CC(N)=O)C(=O)N[C@H](C(=O)N[C@H](C(=O)N[C@@H](CCC(N)=O)C(=O)O)[C@@H](C)CC)[C@@H](C)CC)C(C)C)[C@@H](C)CC [Compound 1]
Emesis: Duration [1, 2]: 0.0 ± 0.0 min | Emesis: Frequency [1, 2]: 0.0 ± 0.0 | Emesis: No. of animals (responder/used) [1, 2]: 0/4 # | Fidget: Duration [1, 2]: 0.0 ± 0.0 min | Fidget: Frequency [1, 2]: 0.0 ± 0.0 | Fidget: No. of animals (responder/used) [1, 2]: 0/4 | Licking: Duration [1, 2]: 0.0 ± 0.0 min | Licking: Frequency [1, 2]: 0.0 ± 0.0 | Licking: No. of animals (responder/used) [1, 2]: 0/4 # | Retching: Duration [1, 2]: 0.0 ± 0.0 min | Retching: Frequency [1, 2]: 0.0 ± 0.0 | Retching: No. of animals (responder/used) [1, 2]: 0/4 # | Vomiting: Duration [1, 2]: 0.0 ± 0.0 min | Vomiting: Frequency [1, 2]: 0.0 ± 0.0 | Vomiting: No. of animals (responder/used) [1, 2]: 0/4 | Emesis: Latency [1, 2]: 30.0 ± 0.0 min | Fidget: Latency [1, 2]: 30.0 ± 0.0 min | Licking: Latency [1, 2]: 30.0 ± 0.0 min | Retching: Latency [1, 2]: 30.0 ± 0.0 min | Vomiting: Latency [1, 2]: 30.0 ± 0.0 min | Attenuation of morphine-induced emesis (in words) ([1]; male ferrets, 30 nmol/kg s.c. 30 minutes before morphine 0.6 mg/kg s.c.): completely attenuated | Comment: Anti-Emetic Activity (inhibition) on morphine-induced emesis ([1]; male ferrets): 100% inhibition | Selectivity Ratio (B/A) (human GIPR): 30,200

YAibEGTFISDYSIALDKI(Lys-(ethylene glycol)2-C15 diacid)QQDFVNWLLAQRG-OH [Compound 25]
Retching Latency ([1]; ferrets, 10 nmol/kg s.c., morphine (0.6 mg/kg, s.c.) administered 4 h after, individual animals and Mean, no emetic response = 30 min): 30 min | Emesis (Retching + Vomiting) Duration [1, 3]: 0 min (4×) and 0.0 min | Retching Duration [1, 3]: 0 min | Vomiting Duration [1, 3]: 0 min | Fidget Duration [1, 4]: 0 min (4×) and 0.0 min | Licking Duration [1, 4]: 0 min (4×) and 0.0 min | Retching Frequency [1, 4]: 0 | Vomiting Frequency [1, 4]: 0 | Emesis (Retching + Vomiting) Latency [1, 5]: 30 min | Vomiting Latency [1, 5]: 30 min | Fidget Latency [1, 6]: 30 min (4×) and 30.0 min | Licking Latency [1, 6]: 30 min (4×) and 30.0 min | Emesis: Duration [1, 7]: 0.0 ± 0.0 min | Emesis: Frequency [1, 7]: 0.0 ± 0.0 | Emesis: No. of animals (responder/used) [1, 7]: 0/4 # | Fidget: Duration [1, 7]: 0.0 ± 0.0^ min | Fidget: Frequency [1, 7]: 0.0 ± 0.0 | Fidget: No. of animals (responder/used) [1, 7]: 0/4 # | Licking: Duration [1, 7]: 0.0 ± 0.0^ min | Licking: Frequency [1, 7]: 0.0 ± 0.0 | Licking: No. of animals (responder/used) [1, 7]: 0/4 # | Retching: Duration [1, 7]: 0.0 ± 0.0 min | Retching: Frequency [1, 7]: 0.0 ± 0.0 | Retching: No. of animals (responder/used) [1, 7]: 0/4 # | Vomiting: Duration [1, 7]: 0.0 ± 0.0 min | Vomiting: Frequency [1, 7]: 0.0 ± 0.0 | Vomiting: No. of animals (responder/used) [1, 7]: 0/4 # | Emesis: Latency [1, 7]: 30.0 ± 0.0 min | Fidget: Latency [1, 7]: 30.0 ± 0.0 min | Licking: Latency [1, 7]: 30.0 ± 0.0 min | Retching: Latency [1, 7]: 30.0 ± 0.0 min | Vomiting: Latency [1, 7]: 30.0 ± 0.0 min | Comment: Anti-Emetic Activity (inhibition) on morphine-induced emesis ([1]; male ferrets): 100% inhibition | Selectivity Ratio (B/A) (human GIPR): >100,000

CCCCCCCCCCCCCCCC(=O)NCCCC[C@H](NC(=O)[C@H](CC(=O)O)NC(=O)[C@H](CCSC)NC(=O)[C@H](C)NC(=O)[C@@H](NC(=O)[C@H](CO)NC(=O)[C@H](Cc1ccc(O)cc1)NC(=O)[C@H](CC(=O)O)NC(=O)[C@H](CO)NC(=O)[C@@H](NC(=O)[C@H](Cc1ccccc1)NC(=O)[C@@H](NC(=O)CNC(=O)[C@H](CCC(=O)O)NC(=O)[C@H](C)NC(=O)[C@@H](N)Cc1ccc(O)cc1)[C@@H](C)O)[C@@H](C)CC)[C@@H](C)CC)C(=O)N[C@H](C(=O)N[C@@H](Cc1c[nH]cn1)C(=O)N[C@@H](CCC(N)=O)C(=O)N[C@@H](CCC(N)=O)C(=O)N[C@@H](CC(=O)O)C(=O)N[C@@H](Cc1ccccc1)C(=O)N[C@H](C(=O)N[C@@H](CC(N)=O)C(=O)N[C@@H](Cc1c[nH]c2ccccc12)C(=O)N[C@@H](CC(C)C)C(=O)N[C@@H](CC(C)C)C(=O)N[C@@H](C)C(=O)N[C@@H](CCC(N)=O)C(=O)N[C@@H](CCCCN)C(=O)NCC(=O)N[C@@H](CCCCN)C(=O)N[C@@H](CCCCN)C(=O)N[C@@H](CC(N)=O)C(=O)N[C@@H](CC(=O)O)C(=O)N[C@@H](Cc1c[nH]c2ccccc12)C(=O)N[C@@H](CCCCN)C(=O)N[C@@H](Cc1c[nH]cn1)C(=O)N[C@@H](CC(N)=O)C(=O)N[C@H](C(=O)N[C@H](C(=O)N[C@@H](CCC(N)=O)C(N)=O)[C@@H](C)CC)[C@@H](C)CC)C(C)C)[C@@H](C)CC [Compound 3]
Ferrets in which the vomiting symptom was observed (in words) ([1]; ferrets, morphine administered 4 hours after administration): all of the 4 ferrets | Duration of emesis [1, 8]: 5.5 ± 7.1 min | Emetic episodes [1, 8]: 21.8 ± 19.2 | Latency period [1, 8]: 7.0 ± 2.9 min | No. of animals that did not vomit [1, 8]: 0 | Emetic episodes, % Inhibition of mean value ([1]; male ferrets, 30 nmol/kg s.c., morphine 0.6 mg/kg s.c. 4 hours after administration, vs vehicle): [−143%] | Comment: Anti-Emetic Activity (inhibition) on morphine-induced emesis ([1]; male ferrets): partial inhibition | Selectivity Ratio (B/A) (human GIPR): 447
